Results: PubChem BioAssay (NCI)
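Values below derive from 48-hour exposures of cells grown in 96-well plates, with endpoints linearly interpolated between the two concentrations bracketing the appropriate inhibition level. TGI marks complete inhibition of growth.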

Experiments:
Assay in all cases: DTP human tumour cell line panel, 48 h
CAKI-1 renal = test system: CAKI-1 renal
ACHN renal = test system: ACHN renal
IGROV1 ovarian = test system: IGROV1 ovarian
OVCAR-8 ovarian = test system: OVCAR-8 ovarian
SF-268 CNS = test system: SF-268 CNS
SNB-75 CNS = test system: SNB-75 CNS
HCC-2998 colon = test system: HCC-2998 colon
HOP-62 NSCLC = test system: HOP-62 NSCLC
A498 renal = test system: A498 renal
HL-60(TB) leukemia = test system: HL-60(TB) leukemia
U251 CNS = test system: U251 CNS
T-47D breast = test system: T-47D breast
786-0 renal = test system: 786-0 renal
OVCAR-4 ovarian = test system: OVCAR-4 ovarian
NCI-H522 lung = test system: NCI-H522 lung
SN12C renal = test system: SN12C renal
UACC-62 melanoma = test system: UACC-62 melanoma
SK-MEL-5 melanoma = test system: SK-MEL-5 melanoma
OVCAR-5 ovarian = test system: OVCAR-5 ovarian
UO-31 renal = test system: UO-31 renal
MALME-3M melanoma = test system: MALME-3M melanoma
SF-295 CNS = test system: SF-295 CNS
M14 melanoma = test system: M14 melanoma
HOP-92 NSCLC = test system: HOP-92 NSCLC
EKVX NSCLC = test system: EKVX NSCLC
MDA-MB-435 = test system: MDA-MB-435
SK-OV-3 ovarian = test system: SK-OV-3 ovarian
SR leukemia = test system: SR leukemia
DU-145 prostate = test system: DU-145 prostate
PC-3 prostate = test system: PC-3 prostate
A549 NSCLC = test system: A549 NSCLC
RPMI-8226 leukemia = test system: RPMI-8226 leukemia
KM12 colon = test system: KM12 colon
UACC-257 melanoma = test system: UACC-257 melanoma
K-562 leukemia = test system: K-562 leukemia
MCF7 breast = test system: MCF7 breast
HT29 colon = test system: HT29 colon
NCI/ADR-RES ovarian = test system: NCI/ADR-RES ovarian
BT-549 breast = test system: BT-549 breast
NCI-H23 lung = test system: NCI-H23 lung
NCI-H226 lung = test system: NCI-H226 lung
MDA-MB-231 breast = test system: MDA-MB-231 breast
COLO 205 colon = test system: COLO 205 colon
MOLT-4 leukemia = test system: MOLT-4 leukemia
RXF 393 renal = test system: RXF 393 renal
SK-MEL-28 melanoma = test system: SK-MEL-28 melanoma
TK-10 renal = test system: TK-10 renal
HS 578T breast = test system: HS 578T breast
SK-MEL-2 melanoma = test system: SK-MEL-2 melanoma
SW-620 colon = test system: SW-620 colon
LOX IMVI melanoma = test system: LOX IMVI melanoma
HCT-15 colon = test system: HCT-15 colon
HCT-116 colon = test system: HCT-116 colon

SMILES: CC1(C)S[C@H](CN)N[C@H]1C(=O)OC(c1ccccc1)c1ccccc1
- TGI (CAKI-1 renal): > 100 µM
- TGI (ACHN renal): > 100 µM
- TGI (IGROV1 ovarian): > 100 µM
- TGI (OVCAR-8 ovarian): > 100 µM
- TGI (SF-268 CNS): > 100 µM
- TGI (SNB-75 CNS): > 100 µM
- TGI (HCC-2998 colon): 36 µM
- TGI (HOP-62 NSCLC): > 100 µM
- TGI (A498 renal): 70.4 µM
- TGI (HL-60(TB) leukemia): 35.7 µM
- TGI (U251 CNS): > 100 µM
- TGI (T-47D breast): 74.3 µM
- TGI (786-0 renal): > 100 µM
- TGI (OVCAR-4 ovarian): > 100 µM
- TGI (NCI-H522 lung): 83.4 µM
- TGI (SN12C renal): > 100 µM
- TGI (UACC-62 melanoma): 81.4 µM
- TGI (SK-MEL-5 melanoma): 31.4 µM
- TGI (OVCAR-5 ovarian): > 100 µM
- TGI (UO-31 renal): 92.6 µM
- TGI (MALME-3M melanoma): 83.8 µM
- TGI (SF-295 CNS): > 100 µM
- TGI (M14 melanoma): > 100 µM
- TGI (HOP-92 NSCLC): 91.6 µM
- TGI (EKVX NSCLC): > 100 µM
- TGI (MDA-MB-435): > 100 µM
- TGI (SK-OV-3 ovarian): > 100 µM
- TGI (SR leukemia): 63.6 µM
- TGI (DU-145 prostate): > 100 µM
- TGI (PC-3 prostate): 92.4 µM
- TGI (A549 NSCLC): > 100 µM
- TGI (RPMI-8226 leukemia): 54.2 µM
- TGI (KM12 colon): > 100 µM
- TGI (UACC-257 melanoma): 40.5 µM
- TGI (K-562 leukemia): 55.8 µM
- TGI (MCF7 breast): > 100 µM
- TGI (HT29 colon): > 100 µM
- TGI (NCI/ADR-RES ovarian): > 100 µM
- TGI (BT-549 breast): 92.2 µM
- TGI (NCI-H23 lung): > 100 µM
- TGI (NCI-H226 lung): > 100 µM
- TGI (MDA-MB-231 breast): > 100 µM
- TGI (COLO 205 colon): 33.8 µM
- TGI (MOLT-4 leukemia): 74.9 µM
- TGI (RXF 393 renal): > 100 µM
- TGI (SK-MEL-28 melanoma): > 100 µM
- TGI (TK-10 renal): > 100 µM
- TGI (HS 578T breast): > 100 µM
- TGI (SK-MEL-2 melanoma): 93.3 µM
- TGI (SW-620 colon): > 100 µM
- TGI (LOX IMVI melanoma): 33.8 µM
- TGI (HCT-15 colon): > 100 µM
- TGI (HCT-116 colon): > 100 µM
